Source: the NIST ThermoML archive (doi:10.1016/j.fluid.2014.07.011)
± gives the expanded uncertainty stated by the source.

Experiment: Boiling temperature at pressure P
Settings: 101 kPa; Liquid; Ebulliometric method (Recirculating still)

Row | SMILES | Boiling temperature at pressure P [°C]
1 | O=Cc1ccco1 [2-furaldehyde] | 162 ± 1.6
2 | CC(=O)CC(C)C [4-methylpentan-2-one] | 117.4 ± 1.6
3 | OC1CCCC1 [cyclopentanol] | 139.4 ± 1.6
4 | CCOC(C)=O [ethyl acetate] | 77.1 ± 1.6
